Experimental data: patent US20060111418A1, “Blood-brain barrier disruption inhibitor” (Mitsubishi Pharma Corporation, priority 2003, published 2006)

Legend:
[1] = test system: experimental autoimmune encephalomyelitis (EAE) model rats; assay: EAE model rats: cytokines in spinal fluid, protein ratio and blood-brain barrier permeability; assay type: in vivo, rat; conditions: 3 mg/kg/day i.p., at 10, 11 and 12 days after sensitization, n=3, FIG. 7
Description: (§1) Experimental autoimmune encephalomyelitis (EAE) model rats were prepared by known methods (Int. J. Immunopharmacol, 7: 497-503, 1995). First, an encephalitogenic emulsion consisting of equivalent amounts of Guinea pig spinal cord, sterile phosphate buffered saline (PBS), and Freund's incomplete adjuvant was prepared. Thereafter, 10 mg/ml Mycobacterium tuberculosis H37Ra (Difco Laboratories) was added to the emulsion. Rats (inbred male Lewis rats; body weight: 200 to 250 g) were inoculated with 0.1 ml each of the thus obtained emulsion by subcutaneous administration of the emulsion to both plantae of the hind legs thereof, so as to prepare EAE model rats.
With regard to the control rats and EAE model rats, the concentrations of TNF-α and IL-1β in blood plasma and in spinal fluid, the protein ratio in spinal fluid/blood plasma, and blood-brain barrier permeability (the ratio of the concentration (Kp, app) of sodium fluorescein in brain/blood plasma, 20 minutes after administration by intravenous injection) were measured, in both a case where edaravone was administered or a case where edaravone was not administered. The terms “Kp” and “app” indicate apparent distribution ratios, which are values obtained by dividing the concentration of fluorescein in brain tissues by the concentration thereof in blood plasma after intravenous injection of the fluorescein (wherein the values are multiplied by 100, so as to be expressed on a percentage basis). It is to be noted that the specific gravity of brain tissues is expressed as 1 (because the unit of concentration is expressed as/g tissue weight). The amount of edaravone administered was set at 3 mg/kg/day (intraperitoneal administration). From 10 days after sensitization (administration of an antigen solution), edaravone was administered at intervals of 24 hours for 3 days (that is, 3 administrations at 10 days, 11 days, and 12 days after sensitization).

[2] = reported in Kawai et al. 1997; Wu et al. 2000; cited from earlier work
[3] = test system: experimental autoimmune encephalomyelitis (EAE) model rats; assay: EAE model rats: limb neuroparalysis score (Paul's clinical score); assay type: in vivo, rat; conditions: edaravone 3 mg/kg/day i.p., dexamethasone 1 mg/kg/day i.p., n=3, FIG. 8
Description: as §1
Moreover, limb neuroparalysis scores were evaluated in a group of EAE model rats to which no agents were administered (control), a group of EAE model rats to which dexamethasone was administered (1 mg/kg/day, intraperitoneal administration), and a group of EAE model rats to which edaravone was administered (3 mg/kg/day, intraperitoneal administration). The limb neuroparalysis scores were evaluated in accordance with the following standards.

[4] = test system: blood-brain barrier coculture model (brain capillary endothelial cells and astrocytes); assay: Blood-brain barrier coculture model, permeability measured as TEER; assay type: cell-based, bovine brain capillary endothelial cells; rat astrocytes; conditions: TNF-α (50 ng/ml) and/or IL-1β (5 ng/ml) added to the BBB coculture model; n=3; FIG. 2
Description: A blood-brain barrier coculture model was prepared by a method that had previously been reported (Eur. J. Pharm. Sci., 12: 215-222, 2001). Specifically, brain microcapillary endothelial cells and rat astrocytes were isolated, and the two types of cells were cultured on both sides of a Transwell™ filter, so as to prepare a coculture model. The preparation method of such a coculture model will be described below.
A brain capillary was isolated from a bovine brain. The meninx and white matter were eliminated therefrom, and the gray matter was recovered in DMEM (DMEM+S) to which 10% fetal calf serum had been added. Vascular fragments were prepared by homogenizing by hand, using a Wheaton homogenizer, and they were then captured on a 150-μm nylon mesh. The blood vessel was digested with collagenase, trypsin and DNAseI, in DMEM+S at 37° C. for 1 hour. […]
The brain capillary was inoculated into a plastic flask used for tissue culture, which had been covered with type IV collagen and fibronectin, and was allowed to adhere to a medium for 4 hours. Thereafter, the medium was exchanged with a growth medium (DMEM+S to which a 50% (v/v) astrocyte-conditioned medium and 125 μg/ml heparin had been added), and growing cells (large quantities of brain capillary endothelial cells and only small quantities of peritheliums) were cultured at 37° C. in 10% CO2. […]

| Compound | increased concentration of IL-1β in spinal fluid [1] | increased concentration of TNF-α in spinal fluid [1] | increased protein ratio in spinal fluid/blood plasma [1] | reactivity to active oxygen [2] | limb neuroparalysis scores [3] | TEER (transcellular endothelial electrical resistance) [4] |
| --- | --- | --- | --- | --- | --- | --- |
| CC1=NN(c2ccccc2)C(=O)C1 [edaravone, 3-methyl-1-phenyl-2-pyrazolin-5-one] | inhibited | inhibited | inhibited | high reactivity | improved | – |
| IL-1β: interleukin-1 beta, inflammatory cytokine | – | – | – | – | – | significantly reduced |
| TNF-α | – | – | – | – | – | significantly reduced |
